The values that follow come from patent publication US8445510B2, “Fused bicyclic kinase inhibitors” (OSI Pharmaceuticals, LLC, priority 2011, dated 2013).

Each structure is given as a SMILES string.

One test has as its system MKN45 cells. Kind of test: MKN45 cell proliferation assay (CellTiter-Glo). In kind it is cell-based. The conditions noted are these: Homo sapiens, MKN-45, 72 h; MKN45 cell line; 3 days incubation; at least duplicate experiments; read-out: Prolif. IC50. A general note: Cellular ATP, detected with luciferase, serves as a proxy for viable cell number.
The target of the next test is T1, RON (Homo sapiens, UniProt Q04912).
T1 sequence (Q04912 913-1400): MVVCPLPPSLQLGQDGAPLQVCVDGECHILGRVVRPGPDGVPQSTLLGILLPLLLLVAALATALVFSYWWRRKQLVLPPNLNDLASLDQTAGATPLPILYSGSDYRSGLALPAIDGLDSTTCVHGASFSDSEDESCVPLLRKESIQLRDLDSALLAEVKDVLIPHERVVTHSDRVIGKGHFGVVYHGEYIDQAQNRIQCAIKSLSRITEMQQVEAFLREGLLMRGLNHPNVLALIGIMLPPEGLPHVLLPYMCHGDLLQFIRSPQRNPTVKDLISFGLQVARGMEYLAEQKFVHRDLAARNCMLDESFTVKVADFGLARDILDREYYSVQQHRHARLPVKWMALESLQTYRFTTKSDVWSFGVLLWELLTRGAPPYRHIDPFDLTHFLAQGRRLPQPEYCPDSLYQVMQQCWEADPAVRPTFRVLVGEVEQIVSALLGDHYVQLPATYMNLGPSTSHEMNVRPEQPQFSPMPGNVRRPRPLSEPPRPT
Kind of test: sfRON cell mechanistic assay (HeLa), phosphorylated RON ELISA. In kind it is cell-based. The conditions noted are these: HeLa cells transfected with sfRON; inhibition of phosphorylated RON; four hours incubation; at least duplicate experiments; read-out: sfRON mech IC50. In a few lines:
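HeLa cells transiently transfected with sfRON plasmid, then exposed 4 h at 37 °C to a 6-point compound series (typically 10 μM to 3 nM, 0.5% DMSO). Phospho-RON (pY1238/1239) in lysates measured by sandwich ELISA with luminescence. IC50 from 4-parameter fit of percent-of-DMSO-control data, at least duplicate runs.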

Usually IC50 stands for the concentration that inhibits the measured activity by half. On to `COc1ccc(F)c(Cl)c1[C@@H](C)c1c[nH]c2ncc(-c3cnn(C)c3N)cc12` [Example 38, 4-{3-[(1S)-1-(2-Chloro-3-fluoro-6-methoxyphenyl)ethyl]-1H-pyrrolo[2,3-b]pyridin-5-yl}-1-methyl-1H-pyrazol-5-amine], for which the IC50 was at most 0.05 µM in the test with MKN45 cells and 0.2 to 1 µM on RON.

With `COc1ccc(F)c(Cl)c1[C@@H](C)c1c[nH]c2ncc(-c3cn(C)nc3C(N)=O)cc12` [Example 39, 4-{3-[(1S)-1-(2-Chloro-3-fluoro-6-methoxyphenyl)ethyl]-1H-pyrrolo[2,3-b]pyridin-5-yl}-1-methyl-1H-pyrazole-3-carboxamide], the figures for the IC50 in the test with MKN45 cells and at RON were 0.05 to 0.2 µM and above 1 µM, respectively.

With `COc1ccc(F)c(Cl)c1[C@@H](C)c1c[nH]c2ncc(-c3c(C)nn(C)c3C(N)=O)cc12` [Example 41, 4-{3-[(1S)-1-(2-Chloro-3-fluoro-6-methoxyphenyl)ethyl]-1H-pyrrolo[2,3-b]pyridin-5-yl}-1,3-dimethyl-1H-pyrazole-5-carboxamide], the IC50 in the test on MKN45 cells and at RON was above 1 µM in each case.

Take `COc1ccc(F)c(Cl)c1[C@@H](C)c1c[nH]c2ncc(-c3cn(C)nc3CO)cc12` [Example 42, (4-{3-[(1S)-1-(2-Chloro-3-fluoro-6-methoxyphenyl)ethyl]-1H-pyrrolo[2,3-b]pyridin-5-yl}-1-methyl-1H-pyrazol-3-yl)methanol]: the values for the IC50 in the test on MKN45 cells and on RON were 0.05 to 0.2 µM and above 1 µM, respectively.

In the case of `COc1ccc(F)c(Cl)c1[C@@H](C)c1c[nH]c2ncc(-c3cnn(C)c3C(N)=O)cc12` [Example 43, 4-{3-[(1S)-1-(2-Chloro-3-fluoro-6-methoxyphenyl)ethyl]-1H-pyrrolo[2,3-b]pyridin-5-yl}-1-methyl-1H-pyrazole-5-carboxamide], the IC50 was 0.2 to 1 µM in the test with MKN45 cells and above 1 µM at RON.

Regarding `COc1ccc(F)c(Cl)c1[C@@H](C)c1c[nH]c2ncc(-c3cnn(C)c3CO)cc12` [Example 44, (4-{3-[(1S)-1-(2-Chloro-3-fluoro-6-methoxyphenyl)ethyl]-1H-pyrrolo[2,3-b]pyridin-5-yl}-1-methyl-1H-pyrazol-5-yl)methanol], the IC50 with MKN45 cells was 0.05 to 0.2 µM; on RON it was above 1 µM.

As for `COc1ccc(F)c(Cl)c1[C@@H](C)c1c[nH]c2ncc(-c3c(C)nn(C)c3CO)cc12` [Example 45, (4-{3-[(1S)-1-(2-Chloro-3-fluoro-6-methoxyphenyl)ethyl]-1H-pyrrolo[2,3-b]pyridin-5-yl}-1,3-dimethyl-1H-pyrazol-5-yl)methanol], the IC50 in the test on MKN45 cells is 0.2 to 1 µM; at RON it was above 1 µM.

As to `COc1ccc(F)c(Cl)c1[C@@H](C)c1c[nH]c2ncc(-c3cn(C)nc3C#N)cc12` [Example 46, 4-{3-[(1S)-1-(2-Chloro-3-fluoro-6-methoxyphenyl)ethyl]-1H-pyrrolo[2,3-b]pyridin-5-yl}-1-methyl-1H-pyrazole-3-carbonitrile], the IC50 with MKN45 cells was 0.05 to 0.2 µM; on RON it was above 1 µM.

Take `CCc1nn([C@H]2CC[C@H](O)CC2)cc1-c1cnc2[nH]cc([C@H](C)c3c(OC)ccc(F)c3Cl)c2c1` [Example 47, trans-4-(4-{3-[(1S)-1-(2-Chloro-3-fluoro-6-methoxyphenyl)ethyl]-1H-pyrrolo[2,3-b]pyridin-5-yl}-3-ethyl-1H-pyrazol-1-yl)cyclohexanol]: the IC50 is at most 0.05 µM with MKN45 cells and 0.2 to 1 µM on RON.

For the molecule `CCc1c(-c2cnc3[nH]cc([C@H](C)c4c(OC)ccc(F)c4Cl)c3c2)cnn1[C@H]1CC[C@H](O)CC1` [Example 48, trans-4-(4-{3-[(1S)-1-(2-Chloro-3-fluoro-6-methoxyphenyl)ethyl]-1H-pyrrolo[2,3-b]pyridin-5-yl}-5-ethyl-1H-pyrazol-1-yl)cyclohexanol], the IC50 with MKN45 cells was at most 0.05 µM; on RON it was above 1 µM.

On to `COc1ccc(F)c(Cl)c1[C@@H](C)c1c[nH]c2ncc(-c3cnn([C@H]4CC[C@H](O)CC4)c3Cl)cc12` [Example 49, trans-4-(5-Chloro-4-{3-[(1S)-1-(2-chloro-3-fluoro-6-methoxyphenyl)ethyl]-1H-pyrrolo[2,3-b]pyridin-5-yl}-1H-pyrazol-1-yl)cyclohexanol], for which the IC50 is at most 0.05 µM with MKN45 cells and above 1 µM at RON.

Consider `COc1ccc(F)c(Cl)c1[C@@H](C)c1c[nH]c2ncc(-c3cn(C)nc3CN)cc12` [Example 50, 1-(4-{3-[(1S)-1-(2-Chloro-3-fluoro-6-methoxyphenyl)ethyl]-1H-pyrrolo[2,3-b]pyridin-5-yl}-1-methyl-1H-pyrazol-3-yl)methanamine], for which the half-maximal inhibitory concentration (IC50) is 0.05 to 0.2 µM in the test on MKN45 cells and above 1 µM on RON.

In the case of `COc1ccc(F)c(Cl)c1[C@@H](C)c1c[nH]c2ncc(-c3c(CO)nn(C)c3C)cc12` [Example 51, (4-{3-[(1S)-1-(2-Chloro-3-fluoro-6-methoxyphenyl)ethyl]-1H-pyrrolo[2,3-b]pyridin-5-yl}-1,5-dimethyl-1H-pyrazol-3-yl)methanol], the concentration for half-maximal inhibition (IC50) was 0.05 to 0.2 µM with MKN45 cells and above 1 µM on RON.

For the molecule `COc1ccc(F)c(Cl)c1[C@@H](C)c1c[nH]c2ncc(-c3cnn([C@H]4CC[C@@H](O)CC4)c3C)cc12` [Example 52, cis-4-(4-{3-[(1S)-1-(2-Chloro-3-fluoro-6-methoxyphenyl)ethyl]-1H-pyrrolo[2,3-b]pyridin-5-yl}-5-methyl-1H-pyrazol-1-yl)cyclohexanol], the IC50 with MKN45 cells is at most 0.05 µM; on RON it was 0.2 to 1 µM.

For `COc1ccc(F)c(Cl)c1[C@@H](C)c1c[nH]c2ncc(-c3cnn([C@H]4CC[C@H](N(C)C)CC4)c3C)cc12` [Example 53, trans-4-(4-{3-[(1S)-1-(2-Chloro-3-fluoro-6-methoxyphenyl)ethyl]-1H-pyrrolo[2,3-b]pyridin-5-yl}-5-methyl-1H-pyrazol-1-yl)-N,N-dimethylcyclohexanamine], the values for the IC50 in the test with MKN45 cells and at RON were at most 0.05 µM and 0.2 to 1 µM, respectively.

On to `COc1ccc(F)c(Cl)c1[C@@H](C)c1c[nH]c2ncc(-c3cnn([C@H]4CC[C@@H](N(C)C)CC4)c3C)cc12` [Example 54, cis-4-(4-{3-[(1S)-1-(2-Chloro-3-fluoro-6-methoxyphenyl)ethyl]-1H-pyrrolo[2,3-b]pyridin-5-yl}-5-methyl-1H-pyrazol-1-yl)-N,N-dimethylcyclohexanamine], for which the half-maximal inhibitory concentration (IC50) with MKN45 cells is at most 0.05 µM; on RON it was 0.2 to 1 µM.

For `COc1ccc(F)c(Cl)c1[C@@H](C)c1c[nH]c2ncc(-c3cn(C)nc3Cl)cc12` [Example 60, 3-[(1S)-1-(2-chloro-3-fluoro-6-methoxyphenyl)ethyl]-5-(3-chloro-1-methyl-1H-pyrazol-4-yl)-1H-pyrrolo[2,3-b]pyridine], the concentration for half-maximal inhibition (IC50) was 0.05 to 0.2 µM with MKN45 cells and above 1 µM on RON.

Turning to `COc1ccc(F)c(Cl)c1[C@@H](C)c1c[nH]c2ncc(-c3cn(C)nc3OC)cc12` [Example 61, 3-[(1S)-1-(2-Chloro-3-fluoro-6-methoxyphenyl)ethyl]-5-(3-methoxy-1-methyl-1H-pyrazol-4-yl)-1H-pyrrolo[2,3-b]pyridine], the IC50 with MKN45 cells was at most 0.05 µM; at RON, 0.2 to 1 µM.

Regarding `COc1ccc(F)c(Cl)c1[C@@H](C)c1c[nH]c2ncc(-c3cnn(C)c3OC)cc12` [Example 62, 3-[(1S)-1-(2-chloro-3-fluoro-6-methoxyphenyl)ethyl]-5-(5-methoxy-1-methyl-1H-pyrazol-4-yl)-1H-pyrrolo[2,3-b]pyridine], the figures for the IC50 with MKN45 cells and at RON were 0.05 to 0.2 µM and above 1 µM, respectively.

With `COc1ccc(F)c(Cl)c1[C@@H](C)c1c[nH]c2ncc(-c3c(C)nn(C)c3Cl)cc12` [Example 63, 5-(5-Chloro-1,3-dimethyl-1H-pyrazol-4-yl)-3-[(1S)-1-(2-chloro-3-fluoro-6-methoxyphenyl)ethyl]-1H-pyrrolo[2,3-b]pyridine], the IC50 was 0.2 to 1 µM in the test on MKN45 cells and above 1 µM at RON.

Consider `COc1ccc(F)c(Cl)c1[C@@H](C)c1c[nH]c2ncc(-c3cncn3C)cc12` [Example 64, 3-[(1S)-1-(2-Chloro-3-fluoro-6-methoxyphenyl)ethyl]-5-(1-methyl-1H-imidazol-5-yl)-1H-pyrrolo[2,3-b]pyridine], for which the IC50 is 0.05 to 0.2 µM in the test with MKN45 cells and above 1 µM on RON.

On to `COc1ccc(F)c(Cl)c1[C@@H](C)c1c[nH]c2ncc(-c3cnc(C)n3C)cc12` [Example 65, 3-[(1S)-1-(2-chloro-3-fluoro-6-methoxyphenyl)ethyl]-5-(1,2-dimethyl-1H-imidazol-5-yl)-1H-pyrrolo[2,3-b]pyridine], for which the figures for the IC50 with MKN45 cells and at RON were 0.05 to 0.2 µM and above 1 µM, respectively.

In the case of `Cc1nn(C[C@@H](O)CO)c(C)c1-c1cnc2[nH]cc([C@H](C)c3c(Cl)ccc(F)c3Cl)c2c1` [Example 66, (2R)-3-(4-{3-[(1S)-1-(2,6-Dichloro-3-fluorophenyl)ethyl]-1H-pyrrolo[2,3-b]pyridin-5-yl}-3,5-dimethyl-1H-pyrazol-1-yl)propane-1,2-diol], the IC50 is at most 0.05 µM with MKN45 cells and 0.2 to 1 µM at RON.
